The values below come from US20090298934A1, “Diamidine Inhibitors of TDP1” (GOVERNMENT OF THE US, AS REPRESENTED BY THE SECRET, priority 2006, published 2009).

Molecules are shown by their SMILES. pIC50: −log10 of the molar value.

Test [1] addresses T1, Tdp1 (Homo sapiens, UniProt Q9NUW8).
T1 construct: His tag with thrombin site and linker (printed […] = X1; made in house; host or cells: E. coli BL21 (Novagen), plasmid pHN1910 in vector pET 15b
Description: High-throughput electrochemiluminescent (ECL) Tdp1 assay. The class given is biochemical.
Description: High-throughput electrochemiluminescene assay developed to identify novel Tdp1 inhibitors. […] This leads to a loss of the chemiluminescence signal. Positive hits for potential Tdp1 inhibitors prevent this loss of signal. C, Signal response curve in the presence of increasing concentrations (nM) of Tdp1.
A, Graph representing the effect of 1981 compounds in the NCI-DTP diversity set on Tdp1 activity at 10 pM. Each dot indicates a signal value for a tested sample. The substrate chemiluminescence (Arbitrary units; A.U.) in the absence of Tdp1 averages at 16313±1084 (n=200; where “n” indicates the number of samples). In the presence of Tdp1 the loss of signal averages at 8784±559 (n=100). The effect of 1981 compounds screened is represented. Positive Tdp1 inhibitors prevent the loss of signal. […] Vanadate at 10 mM was used for comparison.

Test [2] concerns the target T1, Tdp1. Description: Tdp1 gel assay (32P-labeled 14Y / D14Y / 14Y-CC substrates, denaturing PAGE, densitometry). As to conditions: for Ability to inhibit Tdp1 activity in the 14Y substrate (gel): 25 nM 14Y, 1 ng Tdp1, 20 min, pH 8.0, 25° C.; for Conversion half-time (t) of 14Y: 1.9 min in the absence of drug. It is filed as biochemical. An excerpt: FIG. 7. […] A, Schematic representation of the Tdp1 biochemical assay. The partially duplex […] D14Y or single stranded 14Y was used as a substrate. ^32P-Radiolabeling (*) was at the 5′ terminus of the 14-mer strand. Tdp1 catalyzes the hydrolysis of the 3′-phosphotyrosine bond and converts 14Y and D14Y to an oligonucleotide with 3′-phosphate, 14P or D14P respectively. […] Arrows indicate the 3′-phosphate oligonucleotide product (14P) that runs quicker than the corresponding tyrosyl oligonucleotide substrate (14Y) in a denaturing PAGE. The duplex D14Y substrate and D14P product are detected on the gel by their corresponding labeled single strands (14Y and 14P), as they are no longer annealed under the denatured conditions.
FIG. 9. […] Aliquots were taken at the indicated times (min). Reaction products were analyzed by denaturing PAGE. B, densitometry analysis of the gel shown in A. Tdp1 activity measured as the percentage of DNA substrate 14Y converted to 14P (Left panel) or substrate 14Y remaining (Right panel) as a function of reaction time. […] A representative gel is shown. D, densitometry analysis of the gel shown in C. Tdp1 activity was calculated as the percentage of DNA substrate 14Y converted to 14P.
FIG. 10. […] A, Sequences of the oligonucletotide substrates 14Y and 14Y-CC, which differ in their 3′-terminal bases being a -TT or a -CC that is linked to the phosphotyrosine. B, Reactions (100 μl) containing either 25 nM 14Y or 14Y-CC and 5 ng of Tdp1 was incubated at pH 8.0 at 25° C. Aliquots were taken at the indicated times (min). Reaction products were analyzed by denaturing PAGE. C, densitometry analysis of the gel shown in B. Tdp1 activity measured as the percentage of DNA substrates 14Y or 14Y-CC converted to their corresponding products as a function of reaction time. […] A representative gel is shown. E, densitometry analysis of the gel shown in D. Tdp1 activity was calculated as the percentage of DNA substrates 14Y or 14Y-CC converted to their product.
FIG. 11. […] R; common chemical moiety. […] Samples were separated on a 20% Urea-PAGE gel and visualized.
Preparation of Tdp1 substrates: HPLC purified oligonucleotides N14Y (Plo et al., (2003) DNA Repair (Amst) 2(10):1087-1100) were labeled at their 5′-end with [γ-^32P]-ATP (Perkin-Elmer Life Science Co., Boston, Mass.) by incubation with 3′-phosphatase free T4 polynucleotide kinase (Roche applied Science, Indianapolis, Ind.) according to the manufacturer's protocols. Unincorporated nucleotides were removed by Sephadex G-25 spin-column chromatography (Mini Quick Spin Oligo Columns, Roche, Indianapolis, Ind.). For the production of the oligonucleotide duplexes D14Y, N14Y was mixed with the complementary oligonucleotide in equal molar ratios in annealing buffer (10 mM Tris-HCl pH 7.5, 100 mM NaCl, 10 mM MgCl2), heated to 96° C., and allowed to cool down slowly (over 2 h) to room temperature. Tdp1 assays: Unless indicated otherwise, Tdp1 assays are performed in 20 μl mixtures containing 50 mM Tris-HCl, pH 8.0, 80 mM KCl, 2 mM EDTA, 1 mM dithiothreitol (D)T, and 40 μg/ml bovine serum albumin (BSA). For initial screening of Tdp1 inhibitors, 25 nM of 5′-^32P-labeled substrate (D14Y) is reacted with 1 ng Tdp1 (≈0.7 nM) in the absence or presence of inhibitor for 20 min at 25° C. Reactions are stopped by addition of 60 μl of gel loading buffer (98% (v/v) formamide, 1% (w/v) xylene cyanol, 1% (w/v) bromophenol blue). Twelve μl of aliquots are resolved in 20% denaturing polyacrylamide (AccuGel, National Diagnostics, Atlanta, Ga.) (19:1) gel containing 7 M urea. After drying, gels are exposed overnight to PhosphorImager screens (Molecular Dynamics, Sunnyvale, Calif.). Screens are scanned, and images are obtained with the Molecular Dynamics software (Sunnyvale, Calif.). Densitometry analyses are performed using ImageQuant 5.2 software package (Amersham Biosciences, Piscataway, N.J.).

T1 sequence (Q9NUW8 whole entry): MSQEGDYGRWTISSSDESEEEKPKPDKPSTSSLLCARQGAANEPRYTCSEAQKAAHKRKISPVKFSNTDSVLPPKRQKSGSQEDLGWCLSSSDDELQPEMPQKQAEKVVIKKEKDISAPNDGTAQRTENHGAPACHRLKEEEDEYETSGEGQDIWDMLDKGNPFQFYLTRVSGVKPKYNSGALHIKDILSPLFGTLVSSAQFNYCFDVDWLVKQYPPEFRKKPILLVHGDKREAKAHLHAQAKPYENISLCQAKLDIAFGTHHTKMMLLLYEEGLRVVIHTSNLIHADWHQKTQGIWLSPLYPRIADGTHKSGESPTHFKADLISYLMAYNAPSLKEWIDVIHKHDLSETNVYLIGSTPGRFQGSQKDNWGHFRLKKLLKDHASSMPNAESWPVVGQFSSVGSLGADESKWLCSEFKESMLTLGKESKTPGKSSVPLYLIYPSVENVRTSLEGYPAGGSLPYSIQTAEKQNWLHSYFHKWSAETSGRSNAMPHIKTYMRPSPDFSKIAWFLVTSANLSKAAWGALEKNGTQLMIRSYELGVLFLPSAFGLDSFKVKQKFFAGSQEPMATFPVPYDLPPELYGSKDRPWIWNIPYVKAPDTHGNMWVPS

As usually defined, the inhibition is the percentage by which the read-out fell short of the control. A lower inhibition goes with little suppression. Regarding `N=C(N)c1ccc(-c2ccc(-c3ccc(C(=N)N)cc3)o2)cc1` [Compound (b), 2,5-di-(4-phenylamidine)furan], in test [1] (10 μM compound, without Tdp1 16313±1084, with Tdp1 8784±559), the “ECL signal value (substrate chemiluminescence)” value turned out to be 16910 A.U. For the same compound, at 10 µM the inhibition in test [1] (at 10 μM) was 100%. Further, the “Ability to inhibit Tdp1 activity in the 14Y substrate (gel)” value in test [2] is listed as “exhibits an inhibition of Tdp1 activity at 30 μM”. Moreover, the inhibition at 30 µM in test [2] (30 μM compound, 0.1 ng of Tdp1, 14Y) amounted to 50%. For the same compound, the “Inhibition of Tdp1 activity after increasing Tdp1” value in test [2] (30 μM compound, Tdp1 increased to 1 ng, 14Y) is given as “almost completely reversed”. For the same compound, the “Conversion half-time (t) of 14Y” value in test [2] (30 μM compound) stood at 2.7 min; in test [2] (60 μM compound) it was 4.4 min. In addition, the “Type of Tdp1 inhibition” value in test [2] (dependence on reaction time and Tdp1 concentration) was “reversible inhibition”.
By pIC50 is commonly meant −log10 of the IC50, conventionally taken in molar units. High values mean a low IC50, low ones a high IC50. As for `CN(C)C1C(O)=C(C(=O)NCN2CCN(C(=N)NC(=N)N)CC2)C(=O)C2(O)C(O)=C3C(=O)c4c(O)cccc4C(C)(O)C3CC12` (centres unmarked) [Compound (a)], the negative-log IC50 (pIC50) is 4.72 in test [2] (IC50 ds14Y, double-stranded 14Y substrate) and 4.92 in test [2] (IC50 ss14Y, single-stranded 14Y substrate).
As for `CC(=O)NCC(=O)O.CC(=O)NCC(=O)O.N=C(N)c1ccc(N=NNc2ccc(C(=N)N)cc2)cc1` [Berenil, reference compound], in test [2], the “Ability to inhibit Tdp1 activity in the 14Y substrate (gel)” value was “some activity, albeit at a high concentration (300 μM)”.
